Where a name gives a salt, the structure may show the parent alone. Read-outs that look alike come from different tables or passages of the source.
Key:
Assay type in all cases: cell-based
[1] = molecular target: EGFR (A767_dupASV) expressing Ba/F3 stable cell line (Homo sapiens, UniProt P00533, DUP767-769, cells depend on it); assay: Cellular proliferation (Alamar Blue) assay, EGFR A767_dupASV Ba/F3; conditions: 72 hr, read-out: A767 IC50
Outline: (§1)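 Seventy-two-hour compound exposure (3-fold series, final 10–0.0005 μM) of mutant EGFR/HER2 Ba/F3 cells plated at 15,000/well in RPMI with 10% FBS. Alamar Blue added for 3 h at 37 °C as proliferation read-out.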

[2] = molecular target: EGFR(D770_N771insSVD) expressing Ba/F3 stable cell line (Homo sapiens, UniProt P00533, DUP768-770, cells depend on it); assay: Cellular proliferation (Alamar Blue) assay, EGFR D770_N771insSVD Ba/F3; conditions: 72 hr, read-out: D770 IC50
Outline: as §1

[3] = molecular target: HER2 (A775_G776insYVMA) expressing Ba/F3 stable cell line (Homo sapiens, UniProt P04626, DUP772-775, cells depend on it); assay: Cellular proliferation (Alamar Blue) assay, HER2 A775_G776insYVMA Ba/F3; conditions: 72 hr, read-out: YVMA IC50
Outline: as §1

A431 cells = assay: Cellular proliferation (Alamar Blue) assay, A431
[4] = Homo sapiens, A-431; A431 cells, Alamar Blue, 72 hr; read-out: A431 IC50
[5] = Homo sapiens, A-431; A431 cells, 72 hr, Alamar Blue; read-out: A431 IC50

Chain of HER2 (A775_G776insYVMA) expressing Ba/F3 stable cell line (P04626 with tags, fused parts or gaps DUP772-775): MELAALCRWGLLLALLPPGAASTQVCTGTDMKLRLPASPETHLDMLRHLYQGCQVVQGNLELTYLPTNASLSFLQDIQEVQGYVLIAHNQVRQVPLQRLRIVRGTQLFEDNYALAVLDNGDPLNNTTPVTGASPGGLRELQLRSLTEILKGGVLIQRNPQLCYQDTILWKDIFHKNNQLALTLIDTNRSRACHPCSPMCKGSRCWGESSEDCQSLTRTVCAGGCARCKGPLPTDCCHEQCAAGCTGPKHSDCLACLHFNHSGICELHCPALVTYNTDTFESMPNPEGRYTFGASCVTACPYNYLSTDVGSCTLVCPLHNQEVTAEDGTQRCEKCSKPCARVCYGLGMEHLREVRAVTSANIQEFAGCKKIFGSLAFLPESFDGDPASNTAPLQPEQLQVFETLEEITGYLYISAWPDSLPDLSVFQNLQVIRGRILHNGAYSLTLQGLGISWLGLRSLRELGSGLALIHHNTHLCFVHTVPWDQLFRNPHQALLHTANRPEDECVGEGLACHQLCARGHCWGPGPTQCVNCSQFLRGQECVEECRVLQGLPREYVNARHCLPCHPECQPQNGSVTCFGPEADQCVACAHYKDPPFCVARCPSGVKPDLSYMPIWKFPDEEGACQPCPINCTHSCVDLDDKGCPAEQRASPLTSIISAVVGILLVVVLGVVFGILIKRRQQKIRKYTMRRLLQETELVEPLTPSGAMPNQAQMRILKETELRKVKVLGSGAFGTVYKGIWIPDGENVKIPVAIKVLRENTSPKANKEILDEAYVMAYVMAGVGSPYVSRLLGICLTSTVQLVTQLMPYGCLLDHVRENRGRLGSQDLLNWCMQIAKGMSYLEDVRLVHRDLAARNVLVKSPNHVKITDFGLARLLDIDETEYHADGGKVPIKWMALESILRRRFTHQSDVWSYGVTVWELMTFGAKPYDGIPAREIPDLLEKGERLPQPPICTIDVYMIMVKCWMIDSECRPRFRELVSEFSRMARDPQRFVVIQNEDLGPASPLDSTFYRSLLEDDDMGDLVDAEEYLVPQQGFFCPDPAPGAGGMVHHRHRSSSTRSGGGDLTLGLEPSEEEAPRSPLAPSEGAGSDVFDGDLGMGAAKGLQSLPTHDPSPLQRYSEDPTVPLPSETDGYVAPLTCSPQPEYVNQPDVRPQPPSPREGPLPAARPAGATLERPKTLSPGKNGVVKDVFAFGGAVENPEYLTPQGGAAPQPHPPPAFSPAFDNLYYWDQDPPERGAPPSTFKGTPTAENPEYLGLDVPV
Chain of EGFR(D770_N771insSVD) expressing Ba/F3 stable cell line (P00533 with tags, fused parts or gaps DUP768-770): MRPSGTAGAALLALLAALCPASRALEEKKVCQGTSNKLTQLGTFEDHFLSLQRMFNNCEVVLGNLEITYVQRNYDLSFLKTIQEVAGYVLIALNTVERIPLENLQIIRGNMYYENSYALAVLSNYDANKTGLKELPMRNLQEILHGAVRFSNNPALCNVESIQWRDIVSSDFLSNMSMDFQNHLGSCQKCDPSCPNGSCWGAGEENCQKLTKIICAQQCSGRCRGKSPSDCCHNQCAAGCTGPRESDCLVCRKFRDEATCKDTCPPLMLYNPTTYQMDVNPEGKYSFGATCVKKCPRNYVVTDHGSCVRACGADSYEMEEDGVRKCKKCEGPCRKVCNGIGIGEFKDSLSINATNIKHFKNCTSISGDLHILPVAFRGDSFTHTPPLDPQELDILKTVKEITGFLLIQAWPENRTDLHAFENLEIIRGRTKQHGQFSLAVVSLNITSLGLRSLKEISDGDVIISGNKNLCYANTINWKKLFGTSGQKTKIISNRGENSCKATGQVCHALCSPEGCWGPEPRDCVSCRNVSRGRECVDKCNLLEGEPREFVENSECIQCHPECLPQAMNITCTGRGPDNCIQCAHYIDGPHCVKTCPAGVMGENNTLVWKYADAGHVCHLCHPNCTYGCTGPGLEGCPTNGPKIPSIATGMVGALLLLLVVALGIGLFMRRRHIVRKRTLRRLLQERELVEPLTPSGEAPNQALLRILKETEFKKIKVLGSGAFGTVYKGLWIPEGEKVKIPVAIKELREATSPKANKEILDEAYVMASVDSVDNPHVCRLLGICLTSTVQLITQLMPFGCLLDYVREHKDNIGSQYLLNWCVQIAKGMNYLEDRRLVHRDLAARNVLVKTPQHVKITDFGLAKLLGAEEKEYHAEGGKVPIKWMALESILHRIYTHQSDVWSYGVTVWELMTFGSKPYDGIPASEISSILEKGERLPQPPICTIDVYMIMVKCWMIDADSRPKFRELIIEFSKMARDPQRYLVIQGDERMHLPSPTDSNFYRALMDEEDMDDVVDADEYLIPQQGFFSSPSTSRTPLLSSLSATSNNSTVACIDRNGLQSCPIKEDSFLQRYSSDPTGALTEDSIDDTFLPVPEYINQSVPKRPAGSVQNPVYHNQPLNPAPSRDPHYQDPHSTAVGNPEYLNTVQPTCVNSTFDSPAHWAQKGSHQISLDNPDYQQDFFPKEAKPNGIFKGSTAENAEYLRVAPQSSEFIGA
Chain of EGFR (A767_dupASV) expressing Ba/F3 stable cell line (P00533 with tags, fused parts or gaps DUP767-769): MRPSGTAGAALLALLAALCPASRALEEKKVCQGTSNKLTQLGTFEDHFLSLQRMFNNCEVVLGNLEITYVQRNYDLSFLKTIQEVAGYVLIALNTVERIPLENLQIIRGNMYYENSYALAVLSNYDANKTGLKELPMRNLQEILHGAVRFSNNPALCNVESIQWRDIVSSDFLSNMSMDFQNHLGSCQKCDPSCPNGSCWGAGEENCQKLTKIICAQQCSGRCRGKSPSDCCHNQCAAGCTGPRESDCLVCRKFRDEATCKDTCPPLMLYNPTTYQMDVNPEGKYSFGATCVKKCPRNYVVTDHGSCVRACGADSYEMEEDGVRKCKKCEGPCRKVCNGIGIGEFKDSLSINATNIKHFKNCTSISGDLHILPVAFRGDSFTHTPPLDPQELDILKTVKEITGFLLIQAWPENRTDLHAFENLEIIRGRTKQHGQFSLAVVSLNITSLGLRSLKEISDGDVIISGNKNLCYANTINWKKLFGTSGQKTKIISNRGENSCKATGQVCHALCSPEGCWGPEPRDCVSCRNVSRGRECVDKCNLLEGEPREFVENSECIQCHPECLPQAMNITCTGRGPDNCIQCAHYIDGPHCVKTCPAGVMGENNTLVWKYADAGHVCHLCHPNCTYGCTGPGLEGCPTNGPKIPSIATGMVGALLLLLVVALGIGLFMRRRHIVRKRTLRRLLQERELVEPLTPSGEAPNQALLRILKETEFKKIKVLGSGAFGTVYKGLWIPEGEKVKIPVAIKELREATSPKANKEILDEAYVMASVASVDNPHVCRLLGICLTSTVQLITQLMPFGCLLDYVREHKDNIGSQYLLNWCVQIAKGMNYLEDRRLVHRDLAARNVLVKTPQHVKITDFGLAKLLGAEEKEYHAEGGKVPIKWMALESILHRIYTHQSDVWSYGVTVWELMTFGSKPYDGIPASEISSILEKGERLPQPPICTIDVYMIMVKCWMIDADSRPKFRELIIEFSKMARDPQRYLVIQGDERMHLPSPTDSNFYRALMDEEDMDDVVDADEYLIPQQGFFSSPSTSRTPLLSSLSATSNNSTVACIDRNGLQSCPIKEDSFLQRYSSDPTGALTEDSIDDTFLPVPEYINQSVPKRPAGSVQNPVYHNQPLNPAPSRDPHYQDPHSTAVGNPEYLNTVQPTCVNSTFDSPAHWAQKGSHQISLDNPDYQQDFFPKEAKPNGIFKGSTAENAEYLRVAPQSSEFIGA

GI50 [1] [nM] | GI50 [2] [nM] | GI50 [3] [nM] | IC50 (A431 cells; [4]) [nM] | IC50 (A431 cells; [5]) [nM] | Compound
> 10000 | 9780 | 2000 | > 10000 |  | C=CC(=O)Nc1cccc(F)c1CNc1nc(Nc2cnn(C)c2)ncc1Cl [Compound 173, N-(2-(((5-chloro-2-((1-methyl-1H-pyrazol-4-yl)amino)pyrimidin-4-yl)amino)methyl)-3-fluorophenyl)acrylamide]
887 | 934 | 896 | > 10000 |  | C=CC(=O)Nc1ccc(F)c(Nc2nc(Nc3cnn(C)c3)ncc2-c2cccnc2OC)c1 [Compound 79, N-(4-fluoro-3-((5-(2-methoxypyridin-3-yl)-2-((1-methyl-1H-pyrazol-4-yl)amino)pyrimidin-4-yl)amino)phenyl)acrylamide]
> 10000 | > 10000 | > 10000 | > 10000 |  | C=CC(=O)Nc1ccc(F)c(Nc2nc(Nc3cnn(C)c3)ncc2NS(=O)(=O)c2ccccc2)c1 [Compound 51, N-(4-fluoro-3-((2-((1-methyl-1H-pyrazol-4-yl)amino)-5-(phenylsulfonamido)pyrimidin-4-yl)amino)phenyl)acrylamide]
73 | 39 | 278 |  | 132 | C=CC(=O)Nc1ccc(F)c(Nc2nc(Nc3cnn(C4COC4)c3)ncc2-c2ccc(Br)cc2)c1 [Compound 205, N-(3-((5-(4-bromophenyl)-2-((1-(oxetan-3-yl)-1H-pyrazol-4-yl)amino)pyrimidin-4-yl)amino)-4-fluorophenyl)acrylamide]
2780 | 9550 | > 10000 | > 10000 |  | C=CC(=O)Nc1ccc(F)c(-c2nc(Nc3cnn(C)c3)ncc2Cl)c1 [Compound 159, N-(3-{5-chloro-2-[(1-methyl-1H-pyrazol-4-yl)amino]pyrimidin-4-yl}-4-fluorophenyl)prop-2-enamide]
332 | 357 | 416 | 8150 |  | C=CC(=O)Nc1ccc(F)c(Nc2nc(Nc3cnn(C)c3)ncc2C(F)(F)F)c1 [Compound 36, N-(4-fluoro-3-((2-((1-methyl-1H-pyrazol-4-yl)amino)-5-(trifluoromethyl)pyrimidin-4-yl)amino)phenyl)acrylamide]
128 | 99 | 402 |  | 120 | C=CC(=O)Nc1ccc(F)c(Nc2nc(Nc3cnn(C)c3)ncc2-c2csc(Cl)c2)c1 [Compound 298, N-(3-((5-(5-chlorothiophen-3-yl)-2-((1-methyl-1H-pyrazol-4-yl)amino)pyrimidin-4-yl)amino)-4-fluorophenyl)acrylamide]
2440 | 1890 | 1520 | 8020 |  | C=CC(=O)Nc1cccc(Nc2nc(Nc3cnn(C)c3)nnc2Cl)c1 [Compound 156, N-(3-((6-chloro-3-((1-methyl-1H-pyrazol-4-yl)amino)-1,2,4-triazin-5-yl)amino)phenyl)acrylamide]
4070 | 2980 | 3030 | 4010 |  | CN(C)C/C=C/C(=O)Nc1cccc(Nc2nc(Nc3cnn(C)c3)ncc2NCc2ccccc2)c1 [Compound 33, (E)-N-(3-((5-(benzylamino)-2-((1-methyl-1H-pyrazol-4-yl)amino)pyrimidin-4-yl)amino)phenyl)-4-(dimethylamino)but-2-enamide]
28 | 21 | 110 |  | 4 | C=CC(=O)Nc1cccc(Nc2nc(Nc3cnn(C)c3)ncc2-c2ccc(CC(F)(F)F)cc2)c1 [Compound 293, N-(3-((2-((1-methyl-1H-pyrazol-4-yl)amino)-5-(4-(2,2,2-trifluoroethyl)phenyl)pyrimidin-4-yl)amino)phenyl)acrylamide]
308 | 265 | 3150 | 156 |  | C=CC(=O)Nc1ccc(F)c(Nc2nc(Nc3cnn(C)c3)ncc2-c2ccc(C(C)(C)C)cc2)c1 [Compound 76, N-(3-((5-(4-(tert-butyl)phenyl)-2-((1-methyl-1H-pyrazol-4-yl)amino)pyrimidin-4-yl)amino)-4-fluorophenyl)acrylamide trifluoroacetate]
368 | 203 | 151 | 504 |  | C=CC(=O)Nc1ccc(F)c(Nc2nc(Nc3cnn(C)c3)ncc2-c2ccn3ccnc3c2)c1 [Compound 132, N-(4-fluoro-3-((5-(imidazo[1,2-a]pyridin-7-yl)-2-((1-methyl-1H-pyrazol-4-yl)amino)pyrimidin-4-yl)amino)phenyl)acrylamide]
492 | 945 | 1870 | > 10000 |  | C=CC(=O)Nc1ccc(F)c(Nc2nc(Nc3cnn(C)c3)ncc2-c2ccc(N3CCOCC3)nc2)c1 [Compound 55, N-[4-fluoro-3-({2-[(1-methyl-1H-pyrazol-4-yl)amino]-5-[6-(morpholin-4-yl)pyridin-3-yl]pyrimidin-4-yl}amino)phenyl] prop-2-enamide]
885 | 824 | 1610 | > 10000 |  | C=CC(=O)Nc1cccc(Nc2nc(Nc3cnn(C)c3)ncc2NCc2ccccc2)c1 [Compound 32, N-(3-((5-(benzylamino)-2-((1-methyl-1H-pyrazol-4-yl)amino)pyrimidin-4-yl)amino)phenyl)acrylamide]
328 | 149 | 471 |  | 93 | C=CC(=O)Nc1ccc(F)c(Nc2nc(Nc3cnn(C)c3)ncc2-c2ccc3ncnn3c2)c1 [Compound 279, N-(3-((5-([1,2,4]triazolo[1,5-a]pyridin-6-yl)-2-((1-methyl-1H-pyrazol-4-yl)amino)pyrimidin-4-yl)amino)-4-fluorophenyl)acrylamide]
> 10000 | > 10000 | > 10000 | > 10000 |  | C=CC(=O)Nc1cccc(Nc2nc(Nc3cnn(C)c3)ncc2NS(=O)(=O)c2ccccc2)c1 [Compound 29, N-(3-((2-((1-methyl-1H-pyrazol-4-yl)amino)-5-(phenylsulfonamido)pyrimidin-4-yl)amino)phenyl)acrylamide]
8020 | > 10000 | > 10000 | > 10000 |  | CN(C)C/C=C/C(=O)Nc1ccc(-c2ccccc2)c(Nc2ccnc(Nc3cnn(C)c3)n2)c1 [Compound 176, (E)-4-(dimethylamino)-N-(2-((2-((1-methyl-1H-pyrazol-4-yl)amino)pyrimidin-4-yl)amino)-[1,1′-biphenyl]-4-yl)but-2-enamide]
> 10000 | > 10000 | 4720 | > 10000 |  | C/C=C/C(=O)Nc1ccc(F)c(Nc2nc(Nc3cnn(C)c3)ncc2Cl)c1 [Compound 11, (E)-N-(3-((5-chloro-2-((1-methyl-1H-pyrazol-4-yl)amino)pyrimidin-4-yl)amino)-4-fluorophenyl)but-2-enamide]
146 | 105 | 343 |  | 105 | C=CC(=O)Nc1ccc(F)c(Nc2nc(Nc3cn(CCO)nc3Cl)ncc2-c2ccc(C(F)(F)F)cc2)c1 [Compound 241, N-(3-((2-((3-chloro-1-(2-hydroxyethyl)-1H-pyrazol-4-yl)amino)-5-(4-(trifluoromethyl)phenyl)pyrimidin-4-yl)amino)-4-fluorophenyl)acrylamide]

Reference: patent publication US12686673B2 (Blueprint Medicines Corporation, priority 2020, dated 2026)
